Measurements from paper PMC10692721, “Drug discovery for heart failure targeting myosin-binding protein C” (The Journal of Biological Chemistry, 2023).
Counter-ions that a name gives are not always drawn.

Columns and labels:
[1] = tested on: PKA-phosphorylated TMR-cC0-C2 (cC0-C2#P); assay: FLT-TMR concentration-response assay, PKA-phosphorylated cC0-C2; type: binding, human; conditions: 60 μM compound
Method: (§1) Compounds identified as initial hits were further examined to determine the concentration–response curves for seven conditions ([1]): FMAL-actin alone identified actin-binding compounds that alter the FLT of FMAL-actin ([2]).
(§2) Fluorescence lifetime (FLT) measurements were acquired using a high-throughput FLT plate reader (Fluorescence Innovations, Inc) ([14], [27]), provided by Photonic Pharma LLC. […] The observed waveforms were analyzed as described previously ([15], [28]).
(§3) The primary hits were dissolved in DMSO to make a 10 mM stock solution, which was serially diluted in 96-well mother plates. Hits were screened at eight concentrations (0.5–100 μM). […] Compounds (1 μl) were transferred from the mother plates into 384-well plates using a Mosquito HV liquid handler (TTP Labtech Ltd, Hertfordshire, UK). The same procedure of dispensing as for the pilot screening was applied in the concentration-response assays. Concentration dependence of the FLT-FRET (E/EDMSO) or FLT-TMR (Δτ) change data was fit to a Hill equation only under certain conditions to help guide the eye (Fig. 4).

[2] = tested on: TMR-cC0-C2 (C0-C2 fragment of human cMyBP-C); assay: FLT-TMR concentration-response assay (FLT of TMR on cC0-C2, no actin); type: binding; conditions: for cC0-C2/cC0-C2#P (ratio of FLT changes) / cC0-C2 FLT change (% change from DMSO, FLT of TMR-MyBP-C): 60 μM compound; for effect on FLT of TMR-cC0-C2 (in words): concentration-response, no actin
Method: as §1, §2, §3

[3] = tested on: TMR-fC1-C2 (C1-C2 of fast skeletal MyBP-C); assay: FLT-TMR concentration-response assay, fC1-C2; type: binding; conditions: 60 μM compound
Method: as §1, §2, §3

[4] = tested on: FMAL-actin plus TMR-cC0-C2; assay: Selleck library HTS, 473 nm excitation (FLT of FMAL-actin with TMR-cC0-C2, FLT-FRET); type: binding, human; conditions: for 473-nm Δτ, Repeat 1 / 473-nm Δτ, Repeat 2: initial screen, 30 μM compound; for 473-nm z-score (based on avg Δτ): robust z-score, hit threshold ±4, 30 μM compound
Method: as §2
(§4) In total, 50 nl of each solution was dispensed in DMSO using an automated Echo 550 acoustic liquid dispenser (Labcyte). Compounds were formatted into the assay plates, at a final concentration of 30 μM, with the first two and second to last columns loaded with DMSO only (compound-free controls). In the final column, 30 μM of suramin was loaded as a positive control (tool compound). These assay plates were then heat-sealed using a PlateLoc Thermal Microplate Sealer (Agilent Technologies) and stored at −20 °C. Before screening, compound plates were equilibrated to room temperature (∼25 °C). […] Plates were incubated at room temperature for 60 min before recording the data with the fluorescence lifetime plate reader.
After fitting the waveforms with a single exponential decay to quantify donor FLT, the change in FLT (Δτ) was computed by performing a moving median subtraction in the order the plate was scanned with a window size of half a plate row […]. The reasons for this are twofold. Firstly, plate gradients are often observed due to the heating of the digitizer during acquisition.
To account for the necessity to correct for plate gradients in the computation of E, the median τDMSO prior to the application of the moving median correction was added to each well’s Δτ value to recover a rescaled value of τ.

[5] = tested on: TMR-cC0-C2; assay: Selleck library HTS, 532 nm excitation (FLT of TMR-cC0-C2 in presence of FMAL-actin); type: binding, human; conditions: for 532-nm Δτ, Repeat 1 / 532-nm Δτ, Repeat 2: initial screen, 30 μM compound; for 532-nm z-score (based on avg Δτ): robust z-score, hit threshold ±4, 30 μM compound; for effect on FLT of TMR-cC0-C2 in the initial screen (in words): both replicates, actin present
Method: as §2, §4
Hits that exceeded the z-score hit criteria in the donor-only screen were excluded from consideration. To remove compounds with confounding fluorescence properties, a similarity index (SI, specifically the cosine distance, Equation 5) was computed using data from the SUPR instrument by comparing a region (500–540 nm) of the donor-only spectrum (I^(a)) for each well to that of the plate-wide average DMSO spectrum (I^(b)) in the same wavelength band ([29]). Compounds that exceeded an SI robust z-score of 4 were deemed likely fluorescent compounds and removed from consideration.(5) SI=1−∑Ii(a).Ii(b)/∑Ii(a).Ii(a)∑Ii(b).Ii(b)

[6] = tested on: FMAL-actin/TMR-cC0-C2 interaction; assay: FLT-FRET concentration-response assay, FMAL-actin plus TMR-cC0-C2; type: binding, human; conditions: unphosphorylated cC0-C2
Method: as §1, §2, §3

[7] = listed as Erlotinib HCl (OSI-744)

SMILES	cC0-C2#P FLT change (% change from DMSO, FLT of TMR-MyBP-C) [1] [%]	cC0-C2/cC0-C2#P (ratio of FLT changes) [2]	cC0-C2 FLT change (% change from DMSO, FLT of TMR-MyBP-C) [2] [%]	cC0-C2/fC1-C2 (ratio of FLT changes) [3]	fC1-C2 FLT change (% change from DMSO, FLT of TMR-MyBP-C) [3] [%]	473-nm Δτ, Repeat 1 [4] [ns]	473-nm Δτ, Repeat 2 [4] [ns]	473-nm z-score (based on avg Δτ) [4]	532-nm Δτ, Repeat 1 [5] [ns]	532-nm Δτ, Repeat 2 [5] [ns]	532-nm z-score (based on avg Δτ) [5]	effect on FLT-FRET / binding between FMAL-actin and TMR-cC0-C2 (in words) [6]	473-nm Δτ, Repeat 1 [4, 7] [ns]	473-nm Δτ, Repeat 2 [4, 7] [ns]	473-nm z-score (based on avg Δτ) [4, 7]	532-nm Δτ, Repeat 1 [5, 7] [ns]	532-nm Δτ, Repeat 2 [5, 7] [ns]	532-nm z-score (based on avg Δτ) [5, 7]	effect on FLT of TMR-cC0-C2 (in words) [2]	effect on FLT of TMR-cC0-C2 in the initial screen (in words) [5]
O=C(O)[C@H]1O[C@@H](Oc2cc3oc(-c4ccc(O)cc4)cc(=O)c3c(O)c2O)[C@H](O)[C@@H](O)[C@@H]1O [Scutellarin]	−8.7	1.0	−9.1	1.0	−9.5	0.142	0.076	6.15	-0.111	-0.145	-7.79	–	–	–	–	–	–	–	–	–
CC1(C)CC[C@]2(C(=O)O)CC[C@]3(C)C(=CC[C@@H]4[C@@]5(C)CC[C@H](O)[C@@](C)(CO)[C@@H]5CC[C@]43C)[C@@H]2C1 [Hederagenin]	3.6	0.7	2.5	1.1	2.3	0.083	0.060	4.06	-0.038	-0.038	-2.29	–	–	–	–	–	–	–	–	–
Cc1nc(-c2ccc(OCC(C)C)c(C#N)c2)sc1C(=O)O [Febuxostat]	12.1	0.8	9.6	0.7	14.6	0.070	0.043	3.18	0.129	0.132	8.01	–	–	–	–	–	–	–	–	–
CCN(CC)CCCC(C)Nc1ccnc2cc(Cl)ccc12 (stereo not shown) [Chloroquine phosphate]	–	–	2.5	–	1.9	-0.042	-0.069	-3.07	0.311	0.320	19.30	–	–	–	–	–	–	–	–	–
Cc1cnc(C(=O)N[C@H]2CCCCC/C=C\[C@@H]3C[C@@]3(C(=O)NS(=O)(=O)C3CC3)NC(=O)[C@@H]3C[C@@H](Oc4nc5ccccc5c5ccccc45)CN3C2=O)cn1 [Paritaprevir (ABT-450), Paritaprevir]	20.3	1.2	23.8	2.2	11.0	0.115	0.058	4.85	0.220	0.254	14.52	–	–	–	–	–	–	–	–	–
Cc1ccc(Nc2c(F)cccc2Cl)c(CC(=O)O)c1 [Lumiracoxib]	–	–	–	–	–	0.093	0.064	4.45	-0.054	-0.036	-2.72	decrease	–	–	–	–	–	–	–	–
COc1nc2ccc(Br)cc2cc1[C@@H](c1ccccc1)[C@@](O)(CCN(C)C)c1cccc2ccccc12.O=C(O)/C=C/C(=O)O [Bedaquiline fumarate]	−6.5	0.7	−4.5	0.7	6.7	-0.324	-0.412	-20.57	-0.009	-0.105	-3.45	–	–	–	–	–	–	–	–	–
C#Cc1cccc(Nc2ncnc3cc(OCCOC)c(OCCOC)cc23)c1 [Erlotinib HCl]	13.9	0.8	11.8	1.1	11.1	–	–	–	–	–	–	–	-0.040	-0.010	-1.36	0.138	0.020	4.88	–	–
Oc1cccc2cccnc12 [8-Hydroxyquinoline]	–	–	–	–	–	-0.025	-0.188	-5.91	-0.167	-0.285	-13.76	–	–	–	–	–	–	–	did not	strongly reduced
C[C@@H]1O[C@@H](OC[C@H]2O[C@@H](Oc3c(-c4ccc(OCCO)c(OCCO)c4)oc4cc(OCCO)cc(O)c4c3=O)[C@H](O)[C@@H](O)[C@@H]2O)[C@H](O)[C@H](O)[C@H]1O [Troxerutin]	7.3	0.8	6.1	1.0	6.0	-0.024	-0.024	-1.32	0.074	0.088	4.99	–	–	–	–	–	–	–	–	–
CC1(C)CCC(C)(C)c2cc(NC(=O)c3ccc(C(=O)O)cc3)ccc21 [Tamibarotene]	7.2	0.7	5.2	0.9	5.9	0.075	0.067	4.00	0.075	0.106	5.55	–	–	–	–	–	–	–	–	–
O=C(Nc1ccc(Cl)cc1)Nc1ccc(Cl)c(Cl)c1 [Triclocarban]	18.2	0.6	11.6	0.5	22.2	-0.128	-0.042	-4.72	0.374	0.415	24.12	–	–	–	–	–	–	–	–	–
CCCCNc1ccc(C(=O)OCCOCCOCCOCCOCCOCCOCCOCCOCCOC)cc1 [Benzonatate]	–	–	–	–	–	0.108	-0.001	3.05	-0.101	-0.124	-6.82	–	–	–	–	–	–	–	did not	strongly reduced
